Measurements from PMC12595434, “Development of retinoid nuclear receptor pathway antagonists through targeting aldehyde dehydrogenase 1A3” (iScience, 2025).
Where “and” joins values, the source holds several entries; their conditions need not be identical. Identical values can stand only once.

Columns and labels:
RHPN2 = target: T1, RHPN2 (Homo sapiens, UniProt Q8IUC4); experiment: Thermal proteome profiling (TPP) in A375 cells; type: cell-based; details: RHPN2, 100 nM
T1 construct: Treated A375 cells were harvested from 10 × 15 cm plates; endogenous in cells; host or cells: A375 melanoma cells

PVRL1 = target: T2, PVRL1 (Homo sapiens, UniProt Q15223); experiment: Thermal proteome profiling (TPP) in A375 cells; type: cell-based; details: PVRL1, 1 uM
T2 construct: Treated A375 cells were harvested from 10 × 15 cm plates; endogenous in cells; host or cells: A375 melanoma cells

NET = NET (Homo sapiens, UniProt P23975); experiment: Off-target profiling panel; type: binding; details: read-out: Inhibition by MBE1 at 10 μM (%)
5HTT = 5HTT (Homo sapiens, UniProt P31645); experiment: Off-target profiling panel; type: binding; details: read-out: Inhibition by MBE1 at 10 μM (%)
DAT = DAT (Homo sapiens, UniProt Q01959); experiment: Off-target profiling panel; type: binding; details: read-out: Inhibition by MBE1 at 10 μM (%)
M2 = M2 (Homo sapiens, UniProt P08172); experiment: Off-target profiling panel; type: binding; details: read-out: Inhibition by MBE1 at 10 μM (%)
D2 = D2 (Homo sapiens, UniProt P14416); experiment: Off-target profiling panel; type: binding; details: read-out: Inhibition by MBE1 at 10 μM (%)
MAO-A = MAO-A (Homo sapiens, UniProt P21397); experiment: Off-target profiling panel; type: biochemical; details: read-out: Inhibition by MBE1 at 10 μM (%)
Eta antagonist = Eta antagonist (Homo sapiens, UniProt P25101); experiment: Off-target profiling panel; type: cell-based; details: read-out: Inhibition by MBE1 at 10 μM (%)
HEK293 cells = experiment: Metabolomic profiling of treated cell lines (raw metabolite counts); type: cell-based; details: HEK293_Inhibitor, replicates A-C
Description: Supplement mmc8.xlsx, sheet "Supplement Table 7" | column: HEK293_Inhibitor_A; HEK293_Inhibitor_B; HEK293_Inhibitor_C

HaCaT cells = experiment: Dose-titration cytotoxicity analysis; details: 24 hour incubation, highest tested dose 10 μM
[1] = tested on: panel of cancer cell lines; experiment: 48 h proliferation, WST-8 tetrazolium dye assay; type: cell-based, human; details: 48-h proliferation assays, 23 cell lines
[2] = Serum concentration on MBE1.5-formulated diet; type: in vivo, mouse
Description: Finally, to establish a pharmacokinetic profile throughout dosing, MBE1.5 was analyzed in serum 12 h post dose on day 1 and day 7. […] To accommodate consistent plasma concentrations without accumulation, MBE1.5 was formulated to a lower concentration in mouse diet that would administer a dose equivalent to 25 mg/kg daily. This formulated diet was provided to mice for 5 days, at which point serum was analyzed for MBE1.5 concentration at 6:30 a.m. and 4:00 p.m. on day 5 to capture differences in mouse feeding cycles.
No statistical method was used to predetermine the number of animals needed across experiments. […]
proteome profiling in A375 cells was performed in DMSO and at two concentrations of MBE1 using a 10 temperature melting curve for isolation, followed by proteomic analysis, filtering and mapping peptide frequency as a composite melting curve, n=3 biological replicates per condition-temperature. […] ALDH1A3 or NPTN were assessed by WB to confirm the stabilization of ALDH1A3 but not NPTN (55kD, as indicated by arrow) by MBE1. […]
analysis of MBE1.5 following identification of proper formulations and administration to fasted male CD1 mice at 1 mg/kg intravenous (IV) and 10 mg/kg oral gavage (PO). n = 3 mice per arm. […] Upon acclimation, serum MBE1.5 concentrations were calculated following blood draws at 6:30 am and 4 pm. n = 5 mice per arm. […]

T2 sequence (Q15223 31-517): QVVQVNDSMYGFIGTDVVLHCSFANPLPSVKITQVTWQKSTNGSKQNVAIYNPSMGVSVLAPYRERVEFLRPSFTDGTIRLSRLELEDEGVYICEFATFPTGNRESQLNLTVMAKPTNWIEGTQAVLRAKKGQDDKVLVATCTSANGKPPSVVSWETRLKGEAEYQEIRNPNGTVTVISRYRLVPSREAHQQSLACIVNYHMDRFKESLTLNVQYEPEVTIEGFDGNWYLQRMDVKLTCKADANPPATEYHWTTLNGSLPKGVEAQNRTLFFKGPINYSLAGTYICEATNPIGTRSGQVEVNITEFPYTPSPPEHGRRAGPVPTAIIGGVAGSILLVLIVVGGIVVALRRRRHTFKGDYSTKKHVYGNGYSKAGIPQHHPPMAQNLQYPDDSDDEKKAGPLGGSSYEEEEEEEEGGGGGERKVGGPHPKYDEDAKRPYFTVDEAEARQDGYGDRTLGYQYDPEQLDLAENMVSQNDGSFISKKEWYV
T1 sequence (Q8IUC4 whole entry): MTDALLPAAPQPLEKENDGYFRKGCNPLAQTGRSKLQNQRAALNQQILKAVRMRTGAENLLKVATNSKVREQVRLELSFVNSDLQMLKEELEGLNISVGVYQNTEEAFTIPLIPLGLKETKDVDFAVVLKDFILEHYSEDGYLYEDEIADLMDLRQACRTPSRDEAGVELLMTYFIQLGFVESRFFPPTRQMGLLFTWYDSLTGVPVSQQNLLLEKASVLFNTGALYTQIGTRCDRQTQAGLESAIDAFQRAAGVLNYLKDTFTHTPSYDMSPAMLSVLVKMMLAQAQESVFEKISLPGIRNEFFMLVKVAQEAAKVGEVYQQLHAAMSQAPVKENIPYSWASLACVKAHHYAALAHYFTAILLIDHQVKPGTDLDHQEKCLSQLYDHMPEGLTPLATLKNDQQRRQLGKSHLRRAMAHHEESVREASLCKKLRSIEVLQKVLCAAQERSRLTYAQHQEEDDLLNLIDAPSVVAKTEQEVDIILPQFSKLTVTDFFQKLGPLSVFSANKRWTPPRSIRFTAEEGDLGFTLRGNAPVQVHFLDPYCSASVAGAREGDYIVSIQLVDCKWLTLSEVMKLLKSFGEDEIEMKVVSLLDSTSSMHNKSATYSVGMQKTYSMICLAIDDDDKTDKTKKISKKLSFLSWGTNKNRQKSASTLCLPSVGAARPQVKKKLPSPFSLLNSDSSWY
5HTT, sequence (P31645 whole entry): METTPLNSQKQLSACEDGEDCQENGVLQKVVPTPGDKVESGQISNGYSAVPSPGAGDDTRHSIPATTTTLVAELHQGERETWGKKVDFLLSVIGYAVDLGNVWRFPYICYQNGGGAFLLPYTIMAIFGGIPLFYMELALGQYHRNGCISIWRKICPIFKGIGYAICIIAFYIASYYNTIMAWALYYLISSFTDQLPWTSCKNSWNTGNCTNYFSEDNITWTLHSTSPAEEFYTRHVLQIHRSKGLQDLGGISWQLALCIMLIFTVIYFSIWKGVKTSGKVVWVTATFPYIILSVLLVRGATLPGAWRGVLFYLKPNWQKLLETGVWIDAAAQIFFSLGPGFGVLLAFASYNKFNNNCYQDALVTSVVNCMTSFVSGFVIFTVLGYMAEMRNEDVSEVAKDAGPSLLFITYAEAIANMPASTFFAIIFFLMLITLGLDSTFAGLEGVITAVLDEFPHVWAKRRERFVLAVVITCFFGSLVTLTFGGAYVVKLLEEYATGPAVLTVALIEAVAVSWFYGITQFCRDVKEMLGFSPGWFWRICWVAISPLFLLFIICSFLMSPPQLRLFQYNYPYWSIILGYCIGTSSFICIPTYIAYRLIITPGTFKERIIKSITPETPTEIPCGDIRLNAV
NET, sequence (P23975 whole entry): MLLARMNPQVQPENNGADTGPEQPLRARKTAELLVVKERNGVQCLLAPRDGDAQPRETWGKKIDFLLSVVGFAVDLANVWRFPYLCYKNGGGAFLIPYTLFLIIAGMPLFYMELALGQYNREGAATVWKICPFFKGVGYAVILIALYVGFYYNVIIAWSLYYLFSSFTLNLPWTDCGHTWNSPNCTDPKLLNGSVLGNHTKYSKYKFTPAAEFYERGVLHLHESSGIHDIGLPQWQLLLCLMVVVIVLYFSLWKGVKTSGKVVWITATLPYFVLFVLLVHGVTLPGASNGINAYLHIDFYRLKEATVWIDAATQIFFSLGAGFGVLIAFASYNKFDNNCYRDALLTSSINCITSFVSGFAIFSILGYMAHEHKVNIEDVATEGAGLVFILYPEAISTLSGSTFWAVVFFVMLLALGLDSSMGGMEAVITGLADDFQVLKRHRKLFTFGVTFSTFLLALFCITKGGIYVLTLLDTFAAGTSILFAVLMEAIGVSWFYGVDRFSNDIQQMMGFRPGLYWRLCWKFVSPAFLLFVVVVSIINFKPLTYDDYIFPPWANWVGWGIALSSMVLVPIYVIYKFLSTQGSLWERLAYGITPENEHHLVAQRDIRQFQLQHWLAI
M2, sequence (P08172 whole entry): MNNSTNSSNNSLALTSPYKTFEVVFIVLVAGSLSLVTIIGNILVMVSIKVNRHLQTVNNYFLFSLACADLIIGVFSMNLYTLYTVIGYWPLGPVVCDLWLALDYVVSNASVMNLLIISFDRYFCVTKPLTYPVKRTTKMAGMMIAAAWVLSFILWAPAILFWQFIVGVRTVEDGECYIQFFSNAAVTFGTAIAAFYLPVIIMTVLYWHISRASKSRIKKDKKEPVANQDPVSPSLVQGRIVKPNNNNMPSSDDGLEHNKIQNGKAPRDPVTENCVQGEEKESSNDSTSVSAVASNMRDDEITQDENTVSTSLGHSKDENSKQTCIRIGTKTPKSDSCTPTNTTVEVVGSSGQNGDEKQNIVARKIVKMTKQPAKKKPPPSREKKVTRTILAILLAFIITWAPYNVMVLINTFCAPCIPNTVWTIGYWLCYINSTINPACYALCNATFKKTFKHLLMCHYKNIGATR
D2, sequence (P14416 whole entry): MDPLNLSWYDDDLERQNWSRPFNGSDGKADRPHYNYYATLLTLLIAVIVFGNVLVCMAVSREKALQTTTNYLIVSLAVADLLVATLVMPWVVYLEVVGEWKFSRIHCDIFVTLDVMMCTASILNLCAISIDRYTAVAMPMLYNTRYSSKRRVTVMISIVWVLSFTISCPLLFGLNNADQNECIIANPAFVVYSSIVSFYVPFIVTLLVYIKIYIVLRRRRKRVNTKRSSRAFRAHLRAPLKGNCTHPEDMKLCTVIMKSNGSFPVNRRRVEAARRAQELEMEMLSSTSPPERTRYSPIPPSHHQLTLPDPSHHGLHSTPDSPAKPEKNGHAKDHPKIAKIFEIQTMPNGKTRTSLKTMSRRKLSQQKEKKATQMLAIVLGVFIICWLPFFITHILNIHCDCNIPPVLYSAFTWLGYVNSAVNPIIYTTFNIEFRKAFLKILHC
MAO-A, sequence (P21397 whole entry): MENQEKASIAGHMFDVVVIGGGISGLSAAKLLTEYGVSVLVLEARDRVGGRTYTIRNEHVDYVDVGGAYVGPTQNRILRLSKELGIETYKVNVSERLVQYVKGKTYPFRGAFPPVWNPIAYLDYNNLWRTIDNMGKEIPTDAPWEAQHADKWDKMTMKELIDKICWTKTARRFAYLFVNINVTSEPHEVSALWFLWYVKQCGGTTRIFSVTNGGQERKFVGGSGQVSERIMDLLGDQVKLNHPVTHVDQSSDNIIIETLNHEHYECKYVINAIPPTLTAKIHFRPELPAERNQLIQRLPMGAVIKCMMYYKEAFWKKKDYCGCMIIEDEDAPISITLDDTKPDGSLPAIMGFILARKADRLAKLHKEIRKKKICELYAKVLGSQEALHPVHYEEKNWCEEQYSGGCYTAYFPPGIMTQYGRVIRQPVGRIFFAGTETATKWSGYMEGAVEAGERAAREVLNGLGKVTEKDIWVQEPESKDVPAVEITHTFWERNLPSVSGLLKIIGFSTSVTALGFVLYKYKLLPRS
Eta antagonist, sequence (P25101 21-427): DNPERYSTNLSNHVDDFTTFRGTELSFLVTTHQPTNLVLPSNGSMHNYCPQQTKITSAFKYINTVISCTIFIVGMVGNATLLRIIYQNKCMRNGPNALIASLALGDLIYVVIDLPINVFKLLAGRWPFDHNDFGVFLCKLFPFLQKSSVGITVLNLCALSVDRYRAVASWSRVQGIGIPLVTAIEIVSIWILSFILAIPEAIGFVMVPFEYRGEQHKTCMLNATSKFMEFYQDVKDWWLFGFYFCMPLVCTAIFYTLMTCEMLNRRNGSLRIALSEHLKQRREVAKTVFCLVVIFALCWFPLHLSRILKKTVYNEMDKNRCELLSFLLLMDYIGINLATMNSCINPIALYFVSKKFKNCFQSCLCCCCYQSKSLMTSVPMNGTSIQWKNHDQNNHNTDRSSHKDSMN
DAT, sequence (Q01959 whole entry): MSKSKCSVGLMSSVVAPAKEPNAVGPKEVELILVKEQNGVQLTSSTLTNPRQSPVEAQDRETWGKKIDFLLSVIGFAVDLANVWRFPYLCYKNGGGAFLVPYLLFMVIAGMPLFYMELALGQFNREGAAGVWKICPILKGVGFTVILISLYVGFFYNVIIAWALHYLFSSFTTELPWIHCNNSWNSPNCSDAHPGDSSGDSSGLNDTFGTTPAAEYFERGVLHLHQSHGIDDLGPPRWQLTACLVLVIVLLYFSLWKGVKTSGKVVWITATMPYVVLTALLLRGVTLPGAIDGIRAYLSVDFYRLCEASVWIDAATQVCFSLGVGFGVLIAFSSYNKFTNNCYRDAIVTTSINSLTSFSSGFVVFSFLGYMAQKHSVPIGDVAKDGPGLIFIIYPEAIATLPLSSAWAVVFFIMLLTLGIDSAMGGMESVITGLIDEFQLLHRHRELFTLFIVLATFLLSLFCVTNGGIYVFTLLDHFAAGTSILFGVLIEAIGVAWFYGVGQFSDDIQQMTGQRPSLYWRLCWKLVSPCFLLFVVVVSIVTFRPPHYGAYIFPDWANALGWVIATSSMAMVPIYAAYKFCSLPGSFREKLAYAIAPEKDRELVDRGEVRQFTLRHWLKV

CCc1cnccc1C(=O)Nc1cc2c(cc1F)NC(=O)CC2 [MBE1, 3-ethyl-N-(7-fluoro-2-oxo-3,4-dihydro-1H-quinolin-6-yl)pyridine-4-carboxamide]
100nM MBE1 Tm (RHPN2): 58.0062
DMSO-100nM MBE1 TM (RHPN2): -9.514
ΔTm at 1 µM (PVRL1; A-375, read-out: DMSO-1uM MBE1 TM shift): -15.1 °C
1uM MBE1 Tm (PVRL1): 64
inhibition at 10 µM (NET): -19.9%
inhibition at 10 µM (5HTT): -24.2%
inhibition at 10 µM (DAT): -13.1%
inhibition at 10 µM (M2): -6.51%
inhibition at 10 µM (D2): 1.45%
inhibition at 10 µM (MAO-A): -8.05%
inhibition at 10 µM (Eta antagonist): 4.57%
Raw counts of 2-Hydroxybutyric acid (HEK293 cells): 460406 and 376147 and 351707
Raw counts of 3-Hydroxybutyric acid (HEK293 cells): 2036524 and 1752460 and 1814028
Raw counts of 3-Phosphoglycerate (HEK293 cells): 54741.2 and 47239.6 and 67920.5
Raw counts of 3-Phosphoserine (HEK293 cells): 379486 and 687080 and 597417
Raw counts of 6-Phosphogluconate (HEK293 cells): 18526.1 and 6100.06 and 8926.16
Raw counts of Carbamoyl phosphate (HEK293 cells): 141074 and 139557 and 164484
Raw counts of Citrulline (HEK293 cells): 520045 and 463794 and 470630
Raw counts of Cytidine (HEK293 cells): 7575.12 and 7385.3 and 7444.6
Raw counts of Hypoxanthine (HEK293 cells): 234438 and 380137 and 398453
Raw counts of Isoleucine (HEK293 cells): 1.16E+08 and 1.15E+08 (2×)
Raw counts of Lactate (HEK293 cells): 5.47E+08 and 4.80E+08 and 4.40E+08
Raw counts of Leucine (HEK293 cells): 9.35E+07 and 8.69E+07 and 8.73E+07
Raw counts of Methionine (HEK293 cells): 2.07E+07 and 2.11E+07 and 2.08E+07
Raw counts of N-acetyl-glutamine (HEK293 cells): 1122707 and 1247401 and 1071948
Raw counts of Orotate (HEK293 cells): 98388.4 and 120085 and 73533.2
Raw counts of Phenylalanine (HEK293 cells): 8.50E+07 and 7.66E+07 and 8.04E+07
Raw counts of Phosphoenolpyruvate (HEK293 cells): 10515.5 and 13057.1 and 9934.64
Raw counts of Pyridoxine (HEK293 cells): 4.65E+07 and 4.40E+07 and 4.42E+07
Raw counts of Pyruvate (HEK293 cells): 7987114 and 6360434 and 6733166
Raw counts of Ribitol (HEK293 cells): 2730293 and 2993915 and 2689879
Raw counts of Sorbitol (HEK293 cells): 1.69E+07 and 1.55E+07 and 1.59E+07
Raw counts of Taurine (HEK293 cells): 2.13E+07 and 2.37E+07 and 2.28E+07
Raw counts of Tryptophan (HEK293 cells): 1.16E+07 and 1.11E+07 and 1.10E+07
Raw counts of Tyrosine (HEK293 cells): 4.24E+07 and 4.04E+07 and 3.95E+07
Raw counts of UDP (HEK293 cells): 175249 and 191418 and 196338
Raw counts of Uracil (HEK293 cells): 1015162 and 942022 and 907732
Raw counts of Uridine (HEK293 cells): 82140.1 and 83430.9 and 107857
Raw counts of Valine (HEK293 cells): 7.12E+07 and 6.86E+07 and 6.72E+07
Raw counts of Xanthine (HEK293 cells): 7637154 and 6442670 and 6627934
nonspecific cytotoxicity (in words) (HaCaT cells): nontoxic

CCc1ccccc1C(=O)Nc1cc2c(cc1F)NC(=O)CC2 [MBE1.5, 2-ethyl-N-(7-fluoro-2-oxo-3,4-dihydro-1H-quinolin-6-yl)benzamide]
effect on growth or survival (in words) [1]: no detectable effect
concentration at 5 day ([2]; C57BL/6, mouse, serum, oral, 25 mg/kg daily, day 5, read-out: nadir serum concentration): ~270 nM
nadir serum concentration as multiple of IC50 in the retinoid assay ([2]; day 5): more than 100 fold
